Experimental data from publication PMC9532703, “A novel small molecule RK-019 inhibits FGFR2-amplification gastric cancer cell proliferation and induces apoptosis in vitro and in vivo” (Frontiers in Pharmacology, 2022).

How the values were obtained:
Assay in all cases: Kinase selectivity panel
Assay type in all cases: biochemical
MAP4K5(h) = target: T1, MAP4K5(h) (Homo sapiens, UniProt Q9Y4K4); settings: read-out: Inhibition(%) @ 1 µM RK-019
T1 construct: purchased Eurofins Discovery Services (KinaseProfiler)
T1 sequence (Q9Y4K4 whole entry): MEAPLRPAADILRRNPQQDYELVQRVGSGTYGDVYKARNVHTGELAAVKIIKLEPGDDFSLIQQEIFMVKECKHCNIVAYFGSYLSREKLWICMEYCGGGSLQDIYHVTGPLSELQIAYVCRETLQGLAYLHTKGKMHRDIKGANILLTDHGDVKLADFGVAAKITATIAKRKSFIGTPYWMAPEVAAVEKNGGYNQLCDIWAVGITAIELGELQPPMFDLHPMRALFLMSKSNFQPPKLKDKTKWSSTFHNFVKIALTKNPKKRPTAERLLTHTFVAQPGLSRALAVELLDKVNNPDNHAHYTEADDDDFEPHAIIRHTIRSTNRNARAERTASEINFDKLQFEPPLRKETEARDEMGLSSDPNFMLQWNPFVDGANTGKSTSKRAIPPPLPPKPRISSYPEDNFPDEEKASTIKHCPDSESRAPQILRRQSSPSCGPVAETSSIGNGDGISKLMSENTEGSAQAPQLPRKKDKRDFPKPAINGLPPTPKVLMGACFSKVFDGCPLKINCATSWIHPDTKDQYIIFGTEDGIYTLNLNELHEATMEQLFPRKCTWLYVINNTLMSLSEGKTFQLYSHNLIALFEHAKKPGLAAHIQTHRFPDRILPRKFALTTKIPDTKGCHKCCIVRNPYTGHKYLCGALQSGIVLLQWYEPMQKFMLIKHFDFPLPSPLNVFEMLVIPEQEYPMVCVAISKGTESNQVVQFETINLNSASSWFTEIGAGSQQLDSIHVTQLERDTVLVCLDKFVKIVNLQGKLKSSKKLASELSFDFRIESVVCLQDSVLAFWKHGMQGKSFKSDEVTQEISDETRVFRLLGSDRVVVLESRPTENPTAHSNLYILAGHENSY
Summary of the method: (§1)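 Read-out is percent inhibition from an ATP-site competition binding assay, compound at 1 µM, recombinant human kinases.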

ROCK-II(h) = target: T2, ROCK-II(h) (Homo sapiens, UniProt O75116); settings: read-out: Inhibition(%) @ 1 µM RK-019
T2 construct: purchased Eurofins Discovery Services (KinaseProfiler)
Summary of the method: as §1

PAK1(h) = target: T3, PAK1(h) (Homo sapiens, UniProt Q13153); settings: read-out: Inhibition(%) @ 1 µM RK-019
T3 construct: purchased Eurofins Discovery Services (KinaseProfiler)
T3 sequence (Q13153 whole entry): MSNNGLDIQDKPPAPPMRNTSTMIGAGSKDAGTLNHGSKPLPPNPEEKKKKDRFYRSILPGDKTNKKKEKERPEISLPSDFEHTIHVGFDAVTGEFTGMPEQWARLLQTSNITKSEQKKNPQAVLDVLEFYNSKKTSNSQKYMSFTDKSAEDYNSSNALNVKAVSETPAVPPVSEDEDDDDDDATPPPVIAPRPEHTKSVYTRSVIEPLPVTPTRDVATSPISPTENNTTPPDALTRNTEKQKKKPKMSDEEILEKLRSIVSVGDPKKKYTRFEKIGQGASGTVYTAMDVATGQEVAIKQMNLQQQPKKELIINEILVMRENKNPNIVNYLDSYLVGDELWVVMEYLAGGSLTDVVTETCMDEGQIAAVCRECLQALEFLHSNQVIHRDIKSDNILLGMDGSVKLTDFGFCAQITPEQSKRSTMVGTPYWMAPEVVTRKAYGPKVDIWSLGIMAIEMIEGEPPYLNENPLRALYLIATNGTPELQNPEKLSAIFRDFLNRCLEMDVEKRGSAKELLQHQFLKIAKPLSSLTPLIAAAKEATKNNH
Summary of the method: as §1

PRK1(h) = target: T4, PRK1(h) (Homo sapiens, UniProt Q16512); settings: read-out: Inhibition(%) @ 1 µM RK-019
T4 construct: purchased Eurofins Discovery Services (KinaseProfiler)
Summary of the method: as §1

IKKε(h) = target: T5, IKKε(h) (Homo sapiens, UniProt Q14164); settings: read-out: Inhibition(%) @ 1 µM RK-019
T5 construct: purchased Eurofins Discovery Services (KinaseProfiler)
Summary of the method: as §1

Abl(Y253F)(h) = target: T6, Abl(Y253F)(h) (Homo sapiens, UniProt P00519, Y253F); settings: read-out: Inhibition(%) @ 1 µM RK-019
T6 construct: purchased Eurofins Discovery Services (KinaseProfiler)
Summary of the method: as §1

EGFR(L861Q)(h) = target: T7, EGFR(L861Q)(h) (Homo sapiens, UniProt P00533, L861Q); settings: read-out: Inhibition(%) @ 1 µM RK-019
T7 construct: purchased Eurofins Discovery Services (KinaseProfiler)
Summary of the method: as §1

CSK(h) = target: T8, CSK(h) (Homo sapiens, UniProt P41240); settings: read-out: Inhibition(%) @ 1 µM RK-019
T8 construct: purchased Eurofins Discovery Services (KinaseProfiler)
T8 sequence (P41240 whole entry): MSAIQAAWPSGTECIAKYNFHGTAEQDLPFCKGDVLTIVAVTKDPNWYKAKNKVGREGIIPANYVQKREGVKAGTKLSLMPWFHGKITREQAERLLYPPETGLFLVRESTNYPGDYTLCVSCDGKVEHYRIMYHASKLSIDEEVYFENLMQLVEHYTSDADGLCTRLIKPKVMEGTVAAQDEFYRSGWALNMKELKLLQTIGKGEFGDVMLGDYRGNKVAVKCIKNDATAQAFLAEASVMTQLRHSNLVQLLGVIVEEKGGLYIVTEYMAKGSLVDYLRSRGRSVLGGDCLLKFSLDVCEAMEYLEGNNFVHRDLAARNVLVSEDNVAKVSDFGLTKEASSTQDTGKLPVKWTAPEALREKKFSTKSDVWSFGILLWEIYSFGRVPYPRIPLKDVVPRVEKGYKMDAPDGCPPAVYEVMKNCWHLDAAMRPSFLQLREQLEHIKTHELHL
Summary of the method: as §1

TNIK(h) = target: T9, TNIK(h) (Homo sapiens, UniProt Q9UKE5); settings: read-out: Inhibition(%) @ 1 µM RK-019
T9 construct: purchased Eurofins Discovery Services (KinaseProfiler)
Summary of the method: as §1

PKCβI(h) = target: T10, PKCβI(h) (Homo sapiens, UniProt P05771); settings: read-out: Inhibition(%) @ 1 µM RK-019
T10 construct: purchased Eurofins Discovery Services (KinaseProfiler)
Summary of the method: as §1

Ron(h) = target: T11, Ron(h) (Homo sapiens, UniProt Q04912); settings: read-out: Inhibition(%) @ 1 µM RK-019
T11 construct: purchased Eurofins Discovery Services (KinaseProfiler)
Summary of the method: as §1

Aurora-A(h) = target: T12, Aurora-A(h) (Homo sapiens, UniProt O14965); settings: read-out: Inhibition(%) @ 1 µM RK-019
T12 construct: purchased Eurofins Discovery Services (KinaseProfiler)
T12 sequence (O14965 whole entry): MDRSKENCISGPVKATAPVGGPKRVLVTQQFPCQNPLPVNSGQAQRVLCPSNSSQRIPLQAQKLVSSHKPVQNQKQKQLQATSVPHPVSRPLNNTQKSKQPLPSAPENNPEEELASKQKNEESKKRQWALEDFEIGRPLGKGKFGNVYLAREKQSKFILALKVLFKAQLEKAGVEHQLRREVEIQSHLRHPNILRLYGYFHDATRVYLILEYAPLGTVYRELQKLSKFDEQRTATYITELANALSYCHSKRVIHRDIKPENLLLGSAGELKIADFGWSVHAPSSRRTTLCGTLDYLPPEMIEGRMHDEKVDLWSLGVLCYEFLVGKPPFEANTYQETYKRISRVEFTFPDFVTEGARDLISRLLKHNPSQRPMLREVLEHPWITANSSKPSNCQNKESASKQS
Summary of the method: as §1

CLK3(h) = target: T13, CLK3(h) (Homo sapiens, UniProt P49761); settings: read-out: Inhibition(%) @ 1 µM RK-019
T13 construct: purchased Eurofins Discovery Services (KinaseProfiler)
Summary of the method: as §1

IGF-1R(h), activated = target: T14, IGF-1R(h), activated (Homo sapiens, UniProt P08069); settings: read-out: Inhibition(%) @ 1 µM RK-019
T14 construct: purchased Eurofins Discovery Services (KinaseProfiler)
Summary of the method: as §1

JAK3(h) = target: T15, JAK3(h) (Homo sapiens, UniProt P52333); settings: read-out: Inhibition(%) @ 1 µM RK-019
T15 construct: purchased Eurofins Discovery Services (KinaseProfiler)
Summary of the method: as §1

IRR(h) = target: T16, IRR(h) (Homo sapiens, UniProt P14616); settings: read-out: Inhibition(%) @ 1 µM RK-019
T16 construct: purchased Eurofins Discovery Services (KinaseProfiler)
Summary of the method: as §1

STK32C(h) = target: T17, STK32C(h) (Homo sapiens, UniProt Q86UX6); settings: read-out: Inhibition(%) @ 1 µM RK-019
T17 construct: purchased Eurofins Discovery Services (KinaseProfiler)
Summary of the method: as §1

MST2(h) = target: T18, MST2(h) (Homo sapiens, UniProt Q13188); settings: read-out: Inhibition(%) @ 1 µM RK-019
T18 construct: purchased Eurofins Discovery Services (KinaseProfiler)
T18 sequence (Q13188 whole entry): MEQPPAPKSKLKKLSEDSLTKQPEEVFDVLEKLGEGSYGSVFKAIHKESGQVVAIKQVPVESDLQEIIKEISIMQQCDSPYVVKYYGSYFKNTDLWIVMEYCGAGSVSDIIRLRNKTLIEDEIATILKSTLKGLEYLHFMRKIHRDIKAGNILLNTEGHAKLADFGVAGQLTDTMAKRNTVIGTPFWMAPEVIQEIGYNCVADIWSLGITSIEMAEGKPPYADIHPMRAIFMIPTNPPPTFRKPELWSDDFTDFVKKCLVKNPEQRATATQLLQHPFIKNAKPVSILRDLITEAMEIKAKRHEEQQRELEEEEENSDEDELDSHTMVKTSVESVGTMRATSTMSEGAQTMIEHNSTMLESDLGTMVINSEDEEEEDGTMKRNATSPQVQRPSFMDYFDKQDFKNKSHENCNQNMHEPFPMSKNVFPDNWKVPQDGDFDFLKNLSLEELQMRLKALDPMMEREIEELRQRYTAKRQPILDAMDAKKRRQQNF
Summary of the method: as §1

NEK1(h) = target: T19, NEK1(h) (Homo sapiens, UniProt Q96PY6); settings: read-out: Inhibition(%) @ 1 µM RK-019
T19 construct: purchased Eurofins Discovery Services (KinaseProfiler)
Summary of the method: as §1

LRRK2(h) = target: T20, LRRK2(h) (Homo sapiens, UniProt Q5S007); settings: read-out: Inhibition(%) @ 1 µM RK-019
T20 construct: purchased Eurofins Discovery Services (KinaseProfiler)
Summary of the method: as §1

MARK3(h) = target: T21, MARK3(h) (Homo sapiens, UniProt P27448); settings: read-out: Inhibition(%) @ 1 µM RK-019
T21 construct: purchased Eurofins Discovery Services (KinaseProfiler)
Summary of the method: as §1

GRK3(h) = target: T22, GRK3(h) (Homo sapiens, UniProt P35626); settings: read-out: Inhibition(%) @ 1 µM RK-019
T22 construct: purchased Eurofins Discovery Services (KinaseProfiler)
Summary of the method: as §1

MLK1(h) = target: T23, MLK1(h) (Homo sapiens, UniProt P80192); settings: read-out: Inhibition(%) @ 1 µM RK-019
T23 construct: purchased Eurofins Discovery Services (KinaseProfiler)
T23 sequence (P80192 whole entry): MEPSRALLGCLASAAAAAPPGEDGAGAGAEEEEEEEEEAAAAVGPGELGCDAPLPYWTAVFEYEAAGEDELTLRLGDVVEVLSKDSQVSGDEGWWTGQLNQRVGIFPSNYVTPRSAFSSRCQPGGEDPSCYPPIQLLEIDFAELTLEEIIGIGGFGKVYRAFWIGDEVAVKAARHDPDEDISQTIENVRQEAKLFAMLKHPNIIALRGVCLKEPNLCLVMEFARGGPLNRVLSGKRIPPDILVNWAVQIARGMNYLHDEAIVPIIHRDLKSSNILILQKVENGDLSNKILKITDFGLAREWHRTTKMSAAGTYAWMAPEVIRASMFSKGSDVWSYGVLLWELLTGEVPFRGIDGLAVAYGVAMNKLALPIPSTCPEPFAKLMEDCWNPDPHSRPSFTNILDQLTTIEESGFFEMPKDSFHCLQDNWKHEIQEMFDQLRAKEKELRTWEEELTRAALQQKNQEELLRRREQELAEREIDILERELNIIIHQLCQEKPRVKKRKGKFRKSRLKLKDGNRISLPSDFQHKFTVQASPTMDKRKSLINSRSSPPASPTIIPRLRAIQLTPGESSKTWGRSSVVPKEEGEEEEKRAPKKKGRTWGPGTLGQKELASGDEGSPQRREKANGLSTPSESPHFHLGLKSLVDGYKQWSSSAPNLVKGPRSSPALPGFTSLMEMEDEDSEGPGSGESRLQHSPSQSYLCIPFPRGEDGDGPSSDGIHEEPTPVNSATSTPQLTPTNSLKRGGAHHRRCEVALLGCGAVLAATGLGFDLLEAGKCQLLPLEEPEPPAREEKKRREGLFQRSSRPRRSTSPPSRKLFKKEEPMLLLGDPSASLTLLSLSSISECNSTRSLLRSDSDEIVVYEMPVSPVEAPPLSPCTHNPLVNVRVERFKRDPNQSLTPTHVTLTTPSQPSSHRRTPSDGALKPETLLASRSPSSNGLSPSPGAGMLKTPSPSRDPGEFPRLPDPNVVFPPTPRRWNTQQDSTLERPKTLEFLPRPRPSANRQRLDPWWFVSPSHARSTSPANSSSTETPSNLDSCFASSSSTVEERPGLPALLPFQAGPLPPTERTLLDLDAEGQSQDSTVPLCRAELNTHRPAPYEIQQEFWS
Summary of the method: as §1

LTK(h) = target: T24, LTK(h) (Homo sapiens, UniProt P29376); settings: read-out: Inhibition(%) @ 1 µM RK-019
T24 construct: purchased Eurofins Discovery Services (KinaseProfiler)
Summary of the method: as §1

EphA3(h) = target: T25, EphA3(h) (Homo sapiens, UniProt P29320); settings: read-out: Inhibition(%) @ 1 µM RK-019
T25 construct: purchased Eurofins Discovery Services (KinaseProfiler)
Summary of the method: as §1

PAK2(h) = target: T26, PAK2(h) (Homo sapiens, UniProt Q13177); settings: read-out: Inhibition(%) @ 1 µM RK-019
T26 construct: purchased Eurofins Discovery Services (KinaseProfiler)
Summary of the method: as §1

Fms(Y969C)(h) = target: T27, Fms(Y969C)(h) (Homo sapiens, UniProt P07333, Y969C); settings: read-out: Inhibition(%) @ 1 µM RK-019
T27 construct: purchased Eurofins Discovery Services (KinaseProfiler)
Summary of the method: as §1

LIMK1(h) = target: T28, LIMK1(h) (Homo sapiens, UniProt P53667); settings: read-out: Inhibition(%) @ 1 µM RK-019
T28 construct: purchased Eurofins Discovery Services (KinaseProfiler)
Summary of the method: as §1

SNRK(h) = target: T29, SNRK(h) (Homo sapiens, UniProt Q9NRH2); settings: read-out: Inhibition(%) @ 1 µM RK-019
T29 construct: purchased Eurofins Discovery Services (KinaseProfiler)
Summary of the method: as §1

ACK1(h) = target: T30, ACK1(h) (Homo sapiens, UniProt Q07912); settings: read-out: Inhibition(%) @ 1 µM RK-019
T30 construct: purchased Eurofins Discovery Services (KinaseProfiler)
Summary of the method: as §1

SAPK4(h) = target: T31, SAPK4(h) (Homo sapiens, UniProt O15264); settings: read-out: Inhibition(%) @ 1 µM RK-019
T31 construct: purchased Eurofins Discovery Services (KinaseProfiler)
Summary of the method: as §1

CK2α2(h) = target: T32, CK2α2(h) (Homo sapiens, UniProt P19784); settings: read-out: Inhibition(%) @ 1 µM RK-019
T32 construct: purchased Eurofins Discovery Services (KinaseProfiler)
Summary of the method: as §1

PKCγ(h) = target: T33, PKCγ(h) (Homo sapiens, UniProt P05129); settings: read-out: Inhibition(%) @ 1 µM RK-019
T33 construct: purchased Eurofins Discovery Services (KinaseProfiler)
Summary of the method: as §1

STK16(h) = target: T34, STK16(h) (Homo sapiens, UniProt O75716); settings: read-out: Inhibition(%) @ 1 µM RK-019
T34 construct: purchased Eurofins Discovery Services (KinaseProfiler)
Summary of the method: as §1

FGFR2(h) = target: T35, FGFR2(h) (Homo sapiens, UniProt P21802)
T35 construct: purchased Eurofins Discovery Services (KinaseProfiler)
T35 sequence (P21802 22-821): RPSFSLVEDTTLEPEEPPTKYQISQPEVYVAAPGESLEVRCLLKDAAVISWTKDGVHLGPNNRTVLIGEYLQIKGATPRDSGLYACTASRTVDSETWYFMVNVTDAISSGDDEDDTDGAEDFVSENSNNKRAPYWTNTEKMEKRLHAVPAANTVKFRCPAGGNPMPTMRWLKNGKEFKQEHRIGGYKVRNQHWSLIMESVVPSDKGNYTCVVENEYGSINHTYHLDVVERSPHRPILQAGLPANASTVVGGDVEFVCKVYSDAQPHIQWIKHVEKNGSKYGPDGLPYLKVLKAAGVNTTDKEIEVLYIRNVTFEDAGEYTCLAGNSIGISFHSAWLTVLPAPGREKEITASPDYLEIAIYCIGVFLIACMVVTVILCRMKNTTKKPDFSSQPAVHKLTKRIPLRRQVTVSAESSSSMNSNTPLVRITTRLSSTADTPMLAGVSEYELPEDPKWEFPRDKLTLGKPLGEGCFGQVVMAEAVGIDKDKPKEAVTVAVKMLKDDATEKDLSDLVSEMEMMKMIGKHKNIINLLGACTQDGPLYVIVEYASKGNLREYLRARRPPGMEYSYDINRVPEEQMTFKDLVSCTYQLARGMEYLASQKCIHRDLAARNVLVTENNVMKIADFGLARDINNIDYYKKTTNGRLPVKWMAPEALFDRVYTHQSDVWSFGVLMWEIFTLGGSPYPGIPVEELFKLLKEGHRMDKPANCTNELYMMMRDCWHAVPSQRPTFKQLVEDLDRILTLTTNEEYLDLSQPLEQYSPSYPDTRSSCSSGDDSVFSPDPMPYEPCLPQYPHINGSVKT
Summary of the method: as §1

PIP4K2a(h) = target: T36, PIP4K2a(h) (Homo sapiens, UniProt P48426); settings: read-out: Inhibition(%) @ 1 µM RK-019
T36 construct: purchased Eurofins Discovery Services (KinaseProfiler)
T36 sequence (P48426 whole entry): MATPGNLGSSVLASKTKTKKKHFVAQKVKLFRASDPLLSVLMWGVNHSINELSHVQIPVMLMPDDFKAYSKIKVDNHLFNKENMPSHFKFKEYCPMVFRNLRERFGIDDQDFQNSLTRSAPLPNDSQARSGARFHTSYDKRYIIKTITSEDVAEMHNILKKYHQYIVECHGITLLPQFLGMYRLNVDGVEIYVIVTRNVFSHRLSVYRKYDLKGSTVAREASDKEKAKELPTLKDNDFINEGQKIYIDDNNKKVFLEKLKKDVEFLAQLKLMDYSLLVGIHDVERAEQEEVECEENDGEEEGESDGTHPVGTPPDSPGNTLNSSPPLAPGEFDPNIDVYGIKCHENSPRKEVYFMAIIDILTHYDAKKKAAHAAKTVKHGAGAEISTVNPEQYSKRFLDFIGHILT
Summary of the method: as §1

Cdc7/cyclinB1(h) = target: T37, Cdc7/cyclinB1(h) (Homo sapiens, UniProt O00311); settings: read-out: Inhibition(%) @ 1 µM RK-019
T37 construct: purchased Eurofins Discovery Services (KinaseProfiler)
Summary of the method: as §1

COc1cc(OC)cc(N(CCN[C@H](C)CO)c2ccc3ncc(-c4cnn(C)c4)c(=O)n3c2)c1 [RK-019, (R)-7-((3,5-dimethoxyphenyl) (2-((1-hydroxypropan-2-yl)amino)ethyl)amino)-3-(1-methyl-1H-pyrazol-4-yl)-4H-pyrido [1,2-a]pyrimidin-4-one]
activity at 1 µM (MAP4K5(h)): 103% | activity at 1 µM (ROCK-II(h)): 105% | activity at 1 µM (PAK1(h)): 102% | activity at 1 µM (PRK1(h)): 105% | activity at 1 µM (IKKε(h)): 107% | activity at 1 µM (Abl(Y253F)(h)): 54% | activity at 1 µM (EGFR(L861Q)(h)): 103% | activity at 1 µM (CSK(h)): 94% | activity at 1 µM (TNIK(h)): 42% | activity at 1 µM (PKCβI(h)): 102% | activity at 1 µM (Ron(h)): 124% | activity at 1 µM (Aurora-A(h)): 133% | activity at 1 µM (CLK3(h)): 102% | activity at 1 µM (IGF-1R(h), activated): 101% | activity at 1 µM (JAK3(h)): 97% | activity at 1 µM (IRR(h)): 104% | activity at 1 µM (STK32C(h)): 72% | activity at 1 µM (MST2(h)): 97% | activity at 1 µM (NEK1(h)): 52% | activity at 1 µM (LRRK2(h)): 80% | activity at 1 µM (MARK3(h)): 80% | activity at 1 µM (GRK3(h)): 123% | activity at 1 µM (MLK1(h)): 99% | activity at 1 µM (LTK(h)): 101% | activity at 1 µM (EphA3(h)): 60% | activity at 1 µM (PAK2(h)): 98% | activity at 1 µM (Fms(Y969C)(h)): 31% | activity at 1 µM (LIMK1(h)): 103% | activity at 1 µM (SNRK(h)): 92% | activity at 1 µM (ACK1(h)): 104% | activity at 1 µM (SAPK4(h)): 112% | activity at 1 µM (CK2α2(h)): 105% | activity at 1 µM (PKCγ(h)): 92% | activity at 1 µM (STK16(h)): 113% | activity at 1 µM (FGFR2(h); FGFR2(h), read-out: Inhibition(%) @ 1 µM RK-019): 1% | inhibition at 1 µM (FGFR2(h); FGFR2, 1 µM, read-out: inhibition (hit in panel)): > 90% | activity at 1 µM (PIP4K2a(h)): 102% | activity at 1 µM (Cdc7/cyclinB1(h)): 87%
